Test results as given in US11560385B2, “Proteasome activity enhancing compounds” (Proteostasis Therapeutics, Inc., priority 2018, dated 2023).

Target: USP14 (Homo sapiens (Human), UniProt P54578)
Experiment: Usp14 inhibition assay (Example 57B, B-series compounds)
Assay type: biochemical
Settings: IC50 class; average value from a minimum of two experimental determinations
From the text: Example 57B: Usp14 Inhibition Assay
The IC50 values in the Table below represent the average value from a minimum of two experimental determinations.

USP14, sequence (P54578 whole entry, looked up): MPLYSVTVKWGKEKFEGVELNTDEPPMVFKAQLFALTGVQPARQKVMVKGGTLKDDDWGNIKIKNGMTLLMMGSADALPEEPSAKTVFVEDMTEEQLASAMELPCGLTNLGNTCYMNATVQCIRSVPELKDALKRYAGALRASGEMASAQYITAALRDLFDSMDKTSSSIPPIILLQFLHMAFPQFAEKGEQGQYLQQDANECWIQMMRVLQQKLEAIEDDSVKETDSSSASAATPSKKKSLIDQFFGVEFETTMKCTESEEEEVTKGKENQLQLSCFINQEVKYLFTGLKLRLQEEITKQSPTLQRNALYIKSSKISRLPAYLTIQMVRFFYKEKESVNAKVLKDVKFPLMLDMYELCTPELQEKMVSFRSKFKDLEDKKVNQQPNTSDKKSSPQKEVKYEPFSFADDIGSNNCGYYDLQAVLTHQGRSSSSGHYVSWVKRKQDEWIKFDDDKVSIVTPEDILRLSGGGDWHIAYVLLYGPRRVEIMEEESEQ

Structure (SMILES) | IC50 [nM]
Cc1cc(C(=O)CN2[C@@H]3CC[C@H]2[C@](O)(C(C)(C)C)C3)c(C)n1-c1ccc(C#N)cc1 (racemic) [Example 72B, (±)-4-(3-(2-((1R,2S,4S)-2-(tert-Butyl)-2-hydroxy-7-azabicyclo[2.2.1]heptan-7-yl)acetyl)-2,5-dimethyl-1H-pyrrol-1-yl)benzonitrile] | > 500
Cc1c(F)c(C(=O)CN2[C@@H]3C=C(C(F)(F)F)[C@H]2CC3)c(C)n1-c1ccc(C#N)cc1 (racemic) [Example 149B, (±)-4-(3-Fluoro-2,5-dimethyl-4-(2-((1R,4S)-2-(trifluoromethyl)-7-azabicyclo[2.2.1]hept-2-en-7-yl)acetyl)-1H-pyrrol-1-yl)benzonitrile] | 50 to 500
Cc1c(C(=O)CN2C3CCC2CC3)cc(/C=C/CCS(C)(=O)=O)n1-c1ccc(C#N)cc1 [Example 35B, (E)-4-(3-(2-(7-Azabicyclo[2.2.1]heptan-7-yl)acetyl)-2-methyl-5-(4-(methylsulfonyl)but-1-en-1-yl)-1H-pyrrol-1-yl)benzonitrile] | < 50
Cc1cc(C(=O)CN2C3CCC2[C@@H](O)C3)c(C)n1-c1ccc(Cl)c(F)c1 (mixture of isomers) [Example 117B, (±)-1-(1-(4-Chloro-3-fluorophenyl)-2,5-dimethyl-1H-pyrrol-3-yl)-2-((2R)-2-hydroxy-7-azabicyclo[2.2.1]heptan-7-yl)ethan-1-one] | 50 to 500
Cc1cc(C(=O)CN2[C@@H]3CC[C@@H]2CC(O)C3)c(C)n1-c1ccc(C#N)cc1 (stereo partly drawn) [Example 66B, 4-(3-(2-((1R,3r,5S)-3-Hydroxy-8-azabicyclo[3.2.1]octan-8-yl)acetyl)-2,5-dimethyl-1H-pyrrol-1-yl)benzonitrile] | 50 to 500
Cc1cc(C(=O)CN2C3CCC2(C(C)O)CC3)c(C)n1-c1ccc(C#N)cc1 (racemic) [Example 143B, (±)-4-(3-(2-(1-((R)-1-Hydroxyethyl)-7-azabicyclo[2.2.1]heptan-7-yl)acetyl)-2,5-dimethyl-1H-pyrrol-1-yl)benzonitrile] | 50 to 500
Cc1cc(C(=O)CN2C3CCC2[C@@H](O)C3)c(C)n1-c1ccc(C#N)c(F)c1F (mixture of isomers) [Example 99B, (±)-2,3-Difluoro-4-(3-(2-((2R)-2-hydroxy-7-azabicyclo[2.2.1]heptan-7-yl)acetyl)-2,5-dimethyl-1H-pyrrol-1-yl)benzonitrile] | > 500
Cc1c(C(=O)CN2C3CCC2[C@@H](O)C3)cc(CCCOC(F)(F)F)n1-c1ccc(C#N)cc1 (mixture of isomers) [Example 155B, (±)-4-(3-(2-((1R,2R,4R)-2-Hydroxy-7-azabicyclo[2.2.1]heptan-7-yl(acetyl)-2-methyl-5-(3-(trifluoromethoxy)propyl)-1H-pyrrol-1-yl)benzonitrile] | 50 to 500
Cc1c(C(=O)CN2C3CCC2CC3)c(C)n(-c2ccc(C#N)cc2)c1/C=C/CCS(C)(=O)=O [Example 32B, (E)-4-(3-(2-(7-Azabicyclo[2.2.1]heptan-7-yl)acetyl)-2,4-dimethyl-5-(4-(methylsulfonyl)but-1-en-1-yl)-1H-pyrrol-1-yl)benzonitrile] | 50 to 500
Cc1c(C(=O)CN2[C@@H]3CC[C@H]2[C@@H](O)C3)cc(/C=C/CC(C)(C)C#N)n1-c1ccc(C#N)cc1 (racemic) [Example 15B, (±)-4-(5-((E)-4-Cyano-4-methylpent-1-en-1-yl)-3-(2-((1R,2R,4S)-2-hydroxy-7-azabicyclo[2.2.1]heptan-7-yl)acetyl)-2-methyl-1H-pyrrol-1-yl)benzonitrile] | < 50
Cc1c(C(=O)CN2[C@@H]3CC[C@H]2[C@@H](O)C3)cc(/C=C/Cn2cccn2)n1-c1ccc(C#N)cc1 (racemic) [Example 27B, (±)-4-(5-((E)-3-(1H-Pyrazol-1-yl)prop-1-en-1-yl)-3-(2-((1S,2S,4R)-2-hydroxy-7-azabicyclo[2.2.1]heptan-7-yl)acetyl)-2-methyl-1H-pyrrol-1-yl)benzonitrile] | < 50
Cc1c(C(=O)CN2C3CCC2[C@@H](O)C3)cc(COCCC#N)n1-c1ccc(C#N)cc1 (mixture of isomers) [Example 5B, (±)-4-(5-((2-Cyanoethoxy)methyl)-3-(2-((2R)-2-hydroxy-7-azabicyclo[2.2.1]heptan-7-yl)acetyl)-2-methyl-1H-pyrrol-1-yl)benzonitrile] | > 500
Cc1c(C(=O)CN2C3CCC2[C@@H](O)C3)cc(CC2CC(F)(F)C2)n1-c1ccc(C#N)cc1 (mixture of isomers) [Example 135B, (±)-4-(5-((3,3-Difluorocyclobutyl)methyl)-3-(2-((2R)-2-hydroxy-7-azabicyclo[2.2.1]heptan-7-yl)acetyl)-2-methyl-1H-pyrrol-1-yl)benzonitrile] | < 50
Cc1c(C(=O)CN2[C@H]3CC[C@@H]2[C@@H](O)C3)cc(CC2(Cl)CCC2)n1-c1ccc(C#N)cc1 (racemic) [Example 157B, (±)-4-(5-((1-Chlorocyclobutyl)methyl)-3-(2-((1S,2R,4R)-2-hydroxy-7-azabicyclo[2.2.1]heptan-7-yl)acetyl)-2-methyl-1H-pyrrol-1-yl)benzonitrile] | 50 to 500
Cc1c(C(=O)CN2[C@@H]3CC[C@H]2[C@@H](O)C3)cc(CCCCC#N)n1-c1ccc(Cl)cc1 (racemic) [Example 29B, (±)-5-(1-(4-Chlorophenyl)-4-(2-((1R,2R,4S)-2-hydroxy-7-azabicyclo[2.2.1]heptan-7-yl)acetyl)-5-methyl-1H-pyrrol-2-yl)pentanenitrile] | < 50
Cc1cc(C(=O)CN2[C@@H]3CC[C@H]2[C@@H](C)[C@@H]3C)c(C)n1-c1ccc(C#N)cc1 (racemic) [Example 140B, (±)-4-(3-(2-((1R,2R,3R,4S)-2,3-Dimethyl-7-azabicyclo[2.2.1]heptan-7-yl)acetyl)-2,5-dimethyl-1H-pyrrol-1-yl)benzonitrile] | 50 to 500
Cc1cc(C(=O)CN2[C@@H]3CC[C@H]2[C@@H](OC(F)(F)F)C3)c(C)n1-c1ccc(C#N)cc1 (racemic) [Example 105B, (±)-4-(2,5-Dimethyl-3-(2-((1R,2R,4S)-2-(trifluoromethoxy)-7-azabicyclo[2.2.1]heptan-7-yl)acetyl)-1H-pyrrol-1-yl)benzonitrile] | > 500
Cc1cc(C(=O)CN2C3CCC2(C(=O)O)CC3)c(C)n1-c1ccc(C#N)cc1 [Example 127B, 7-(2-(1-(4-Cyanophenyl)-2,5-dimethyl-1H-pyrrol-3-yl)-2-oxoethyl)-7-azabicyclo[2.2.1]heptane-1-carboxylic Acid] | > 500
Cc1cc(C(=O)CN2C3CCC2[C@@H]2COC[C@H]32)c(C)n1-c1ccc(C#N)cc1 (racemic) [Example 106B, (±)-4-(2,5-Dimethyl-3-(2-((3aR,4R,7S,7aS)-octahydro-4,7-epiminoisobenzofuran-8-yl)acetyl)-1H-pyrrol-1-yl)benzonitrile] | 50 to 500
Cc1c(C(=O)CN2C3CCC2CC3)cc(CC2CCS(=O)(=O)CC2)n1-c1ccc(Cl)cc1 [Example 25B, 2-(7-Azabicyclo[2.2.1]heptan-7-yl)-1-(1-(4-chlorophenyl)-5-((1,1-dioxidotetrahydro-2H-thiopyran-4-yl)methyl)-2-methyl-1H-pyrrol-3-yl)ethan-1-one] | 50 to 500
COCCCCc1cc(C(=O)CN2[C@@H]3CC[C@H]2[C@@H](O)C3)c(C)n1-c1ccc(C#N)cc1 (stereo in doubt) [Example 12B, (rel)-4-(3-(2-((1R,2R,4S)-2-Hydroxy-7-azabicyclo[2.2.1]heptan-7-yl)acetyl)-5-(4-methoxybutyl)-2-methyl-1H-pyrrol-1-yl)benzonitrile] | < 50
Cc1c(C(=O)CN2[C@@H]3CC[C@H]2[C@@H](O)C3)cc(CCC2(C)COC2)n1-c1ccc(C#N)cc1 (racemic) [Example 55B, (±)-4-(3-(2-((1R,2R,4S)-2-Hydroxy-7-azabicyclo[2.2.1]heptan-7-yl)acetyl)-2-methyl-5-(2-(3-methyloxetan-3-yl)ethyl)-1H-pyrrol-1-yl)benzonitrile] | < 50
Cc1c(C(=O)CN2[C@@H]3CC[C@H]2[C@@H](O)C3)cc(CC2CC(C)(C)C2)n1-c1ccc(C#N)cc1 (racemic) [Example 134B, (±)-4-(5-((3,3-Dimethylcyclobutyl)methyl)-3-(2-((1R,2R,4S)-2-hydroxy-7-azabicyclo[2.2.1]heptan-7-yl)acetyl)-2-methyl-1H-pyrrol-1-yl)benzonitrile] | < 50
Cc1cc(C(=O)CN2C3CC4CC2CC(O)(C4)C3)c(C)n1-c1ccc(C#N)cc1 [Example 81B, 4-(3-(2-((5s,7s)-5-Hydroxy-2-azaadamantan-2-yl)acetyl)-2,5-dimethyl-1H-pyrrol-1-yl)benzonitrile] | 50 to 500
Cc1c(C(=O)CN2C3CCC2[C@@H](O)C3)cc(C(C)(C)C)n1-c1ccc(C#N)cc1 (mixture of isomers) [Example 113B, (±)-4-(5-(tert-Butyl)-3-(2-((2R)-2-hydroxy-7-azabicyclo[2.2.1]heptan-7-yl)acetyl)-2-methyl-1H-pyrrol-1-yl)benzonitrile] | 50 to 500
Cc1nccn1C/C=C/c1cc(C(=O)CN2C3CCC2[C@@H](O)C3)c(C)n1-c1ccc(C#N)cc1 (mixture of isomers) [Example 6B, (±)-4-(3-(2-((2R)-2-Hydroxy-7-azabicyclo[2.2.1]heptan-7-yl)acetyl)-2-methyl-5-((E)-3-(2-methyl-1H-imidazol-1-yl)prop-1-en-1-yl)-1H-pyrrol-1-yl)benzonitrile] | < 50
Cc1c(C(=O)CN2C3CCC2[C@@H](O)C3)cc(C#CC2COC2)n1-c1ccc(C#N)cc1 (mixture of isomers) [Example 57B, (±)-4-(3-(2-((2R)-2-Hydroxy-7-azabicyclo[2.2.1]heptan-7-yl)acetyl)-2-methyl-5-(oxetan-3-ylethynyl)-1H-pyrrol-1-yl)benzonitrile] | 50 to 500
Cc1c(C(=O)CN2C3CCC2[C@@H](O)C3)c(C)n(-c2ccc(C#N)cc2)c1C (mixture of isomers) [Example 76B, (±)-4-(3-(2-((2R)-2-Hydroxy-7-azabicyclo[2.2.1]heptan-7-yl)acetyl)-2,4,5-trimethyl-1H-pyrrol-1-yl)benzonitrile] | 50 to 500
Cc1c(C(=O)CN2C3CCC2[C@@H](O)C3)cc(C[C@H]2C[C@H](C#N)C2)n1-c1ccc(C#N)cc1 (mixture of isomers) [Example 45B, (±)-4-(5-(((1r,3R)-3-Cyanocyclobutyl)methyl)-3-(2-((2R)-2-hydroxy-7-azabicyclo[2.2.1]heptan-7-yl)acetyl)-2-methyl-1H-pyrrol-1-yl)benzonitrile] | < 50
